The source of these data is patent publication US11566007B2, “Ras inhibitors” (Revolution Medicines, Inc., priority 2019, dated 2023).

Molecules are shown by their SMILES. Several values for one entry are separate records, joined by “and”; a condition that tells them apart may be missing. Identical values can stand only once.

Assay type in all cases: biochemical
Experiment [1] deals with KRAS G12D (Homo sapiens (Human), UniProt P01116+P62937, G12D). The experiment is described as follows: Ras-Raf (BRAF RBD) disruption / FRET / MOA assay, KRAS G12D. The following applies: Ras-Raf disruption/FRET/MOA assay; class symbols; read-out: KRAS G12D FRET data IC50. Put shortly: (§1)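 Compounds, top final concentration 30 μM in 10-point 3-fold series, incubated 3 hours at 25° C with nucleotide-loaded Ras, cyclophilin A and BRAF RBD.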
KRAS G12D, sequence (P01116-2 other isoform, or with tags, fused parts or gaps G12D): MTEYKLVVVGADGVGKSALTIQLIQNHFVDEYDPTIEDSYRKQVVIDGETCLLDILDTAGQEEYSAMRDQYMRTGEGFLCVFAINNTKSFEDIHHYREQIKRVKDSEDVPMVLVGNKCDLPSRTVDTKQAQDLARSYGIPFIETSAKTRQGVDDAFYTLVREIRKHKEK
KRAS G12D, sequence (P62937 whole entry): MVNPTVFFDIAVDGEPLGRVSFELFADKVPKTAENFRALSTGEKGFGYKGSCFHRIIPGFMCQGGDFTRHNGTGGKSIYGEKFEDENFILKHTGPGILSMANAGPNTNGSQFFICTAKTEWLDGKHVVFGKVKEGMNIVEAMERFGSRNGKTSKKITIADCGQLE

Experiment [2] deals with NRAS Q61K (Homo sapiens (Human), UniProt P01111+P62937, Q61K). The experiment is described as follows: Ras-Raf (BRAF RBD) disruption / FRET / MOA assay, NRAS Q61K. The conditions noted are these: NRAS Q61K; Ras-Raf disruption/FRET/MOA assay; read-out: IC50* NRAS Q61K FRET data. In a few lines:
(§2)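 TR-FRET disruption of nucleotide-loaded Ras binding to BRAF RBD via compound-driven ternary complex with cyclophilin A. Compound as 10-point 3-fold series from 30 μM final, 3 h at 25° C, then anti-His Eu-W1024 (10 nM) and anti-GST allophycocyanin (50 nM) for 1.5 h. IC50 from decreased FRET ratio versus DMSO.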

The target of experiment [3] is K-Ras G12C (Homo sapiens (Human), UniProt P01116+P62937, G12C). Nature of the experiment: Ras-Raf (BRAF RBD) disruption / FRET / MOA assay, KRAS G12C. The conditions noted are these: KRAS G12C; Ras-Raf disruption/FRET/MOA assay; read-out: IC50* KRAS G12C FRET data. In a few lines:
as §1

The target of experiment [4] is KRAS WT (Homo sapiens (Human), UniProt P01116+P62937). The experiment is described as follows: Ras-Raf (BRAF RBD) disruption / FRET / MOA assay, KRAS WT. The following applies: read-out: IC50* KRAS WT FRET data. Put shortly: as §1
KRAS WT, sequence (P01116-2 other isoform, or with tags, fused parts or gaps): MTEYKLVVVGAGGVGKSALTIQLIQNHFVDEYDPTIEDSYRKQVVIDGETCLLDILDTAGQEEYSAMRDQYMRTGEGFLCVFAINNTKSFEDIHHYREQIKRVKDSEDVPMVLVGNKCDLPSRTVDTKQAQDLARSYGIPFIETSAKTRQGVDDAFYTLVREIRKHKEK
KRAS WT, sequence (P62937 whole entry): as the sequence (P62937 whole entry) above
Experiment [5] deals with KRAS G13D (Homo sapiens (Human), UniProt P01116+P62937, G13D). Nature of the experiment: Ras-Raf (BRAF RBD) disruption / FRET / MOA assay, KRAS G13D. The following applies: read-out: IC50* KRAS G13D FRET data. Put shortly: as §1
KRAS G13D, sequence (P01116-2 other isoform, or with tags, fused parts or gaps G13D): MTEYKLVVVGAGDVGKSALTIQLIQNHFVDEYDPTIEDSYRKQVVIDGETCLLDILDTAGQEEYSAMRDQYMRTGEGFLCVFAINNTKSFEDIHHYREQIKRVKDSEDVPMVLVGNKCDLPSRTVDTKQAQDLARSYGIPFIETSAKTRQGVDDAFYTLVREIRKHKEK
KRAS G13D, sequence (P62937 whole entry): as the sequence (P62937 whole entry) above
Experiment [6] concerns the target NRAS Q61R (Homo sapiens (Human), UniProt P01111+P62937, Q61R). Nature of the experiment: Ras-Raf (BRAF RBD) disruption / FRET / MOA assay, NRAS Q61R. The following applies: NRAS Q61R; Ras-Raf disruption/FRET/MOA assay; read-out: IC50* NRAS Q61R FRET data. Put shortly:
as §2

Experiment [7] has as its target KRAS Q61H (Homo sapiens (Human), UniProt P01116+P62937, Q61H). The experiment is described as follows: Ras-Raf (BRAF RBD) disruption / FRET / MOA assay, KRAS Q61H. The conditions noted are these: Ras-Raf disruption/FRET/MOA assay; class symbols; read-out: KRAS Q61H FRET data IC50. Put shortly:
as §2

NRAS Q61R, sequence (P01111 whole entry Q61R): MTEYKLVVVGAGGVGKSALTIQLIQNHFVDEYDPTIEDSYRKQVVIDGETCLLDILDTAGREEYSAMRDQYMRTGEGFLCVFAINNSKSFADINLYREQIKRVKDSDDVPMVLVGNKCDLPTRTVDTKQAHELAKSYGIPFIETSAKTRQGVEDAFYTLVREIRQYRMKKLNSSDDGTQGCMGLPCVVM
NRAS Q61R, sequence (P62937 whole entry): as the sequence (P62937 whole entry) above
K-Ras G12C, sequence (P01116-2 other isoform, or with tags, fused parts or gaps G12C): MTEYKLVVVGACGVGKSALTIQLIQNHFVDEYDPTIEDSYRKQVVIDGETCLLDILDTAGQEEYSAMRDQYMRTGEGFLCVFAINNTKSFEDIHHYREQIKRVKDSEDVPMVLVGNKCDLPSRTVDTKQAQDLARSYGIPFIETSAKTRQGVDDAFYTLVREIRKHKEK
K-Ras G12C, sequence (P62937 whole entry): as the sequence (P62937 whole entry) above
NRAS Q61K, sequence (P01111 whole entry Q61K): as the sequence (P01111 whole entry Q61R) above, with R61K counted along it
NRAS Q61K, sequence (P62937 whole entry): as the sequence (P62937 whole entry) above
KRAS Q61H, sequence (P01116-2 other isoform, or with tags, fused parts or gaps Q61H): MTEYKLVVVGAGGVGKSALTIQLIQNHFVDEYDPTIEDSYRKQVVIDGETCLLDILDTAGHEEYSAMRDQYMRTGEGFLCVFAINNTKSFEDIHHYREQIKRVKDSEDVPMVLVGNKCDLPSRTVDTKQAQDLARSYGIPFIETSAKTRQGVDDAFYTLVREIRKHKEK
KRAS Q61H, sequence (P62937 whole entry): as the sequence (P62937 whole entry) above

Regarding `C=CC(=O)N1CC[C@H](C(=O)N(C)[C@H](C(=O)N[C@H]2Cc3cc(O)cc(c3)-c3ccc4c(c3)c(c(-c3cn(C)cn3)n4CC)CC(C)(C)COC(=O)[C@@H]3CCCN(N3)C2=O)C(C)C)C1` [Example A113], the IC50 in experiment [1] was more than 10000 nM; in experiment [2] it was more than 10000 nM; in experiment [3] it was 100 to 1000 nM; in experiment [4], more than 10000 nM; in experiment [5] it was more than 10000 nM; in experiment [6], more than 10000 nM. Further, in experiment [7], the IC50 lay within 1000 to 10000 nM.

As for `C=CC(=O)N1CC[C@H](C(=O)N(C)[C@H](C(=O)N[C@H]2Cc3cc(cc(C(F)F)c3)-c3ccc4c(c3)c(c(-c3cccnc3[C@H](C)OC)n4CC)CC(C)(C)COC(=O)[C@@H]3CCCN(N3)C2=O)C(C)C)C1` (atropisomer, axis not shown) [Example A341, (3S)-1-acryloyl-N-((2S)-1-(((6^3S,4S)-2^5-(difluoromethyl)-1^1-ethyl-1^2-(2-((S)-1-methoxyethyl)pyridin-3-yl)-10,10-dimethyl-5,7-dioxo-6^1,6^2,6^3,6^4,6^5,6^6-hexahydro-1^1H-8-oxa-1(5,3)-indola-6(1,3)-pyridazina-2(1,3)-benzenacycloundecaphane-4-yl)amino)-3-methyl-1-oxobutan-2-yl)-N-methylpyrrolidine-3-carboxamide], the IC50 in experiment [1] lay in the range of 1000 to 10000 nM; in experiment [2] it was 1000 to 10000 nM; in experiment [3], 100 to 1000 nM; in experiment [4], 1000 to 10000 nM; in experiment [5] it was 1000 to 10000 nM; in experiment [6], 1000 to 10000 nM. Also, in experiment [7], the IC50 fell in the range of 100 to 1000 nM.

Take `CO[C@@H](C)c1ncccc1-c1c2c3cc(ccc3n1CC(F)(F)F)-c1cccc(c1)C[C@H](NC(=O)[C@H](C(C)C)N(C)C(=O)N1CCC3(CC1)CN(C(=O)/C=C/CN(C)C)C3)C(=O)N1CCC[C@H](N1)C(=O)OCC(C)(C)C2` (atropisomer, axis not shown) [Example A555]: the IC50 in experiment [1], in experiment [2], in experiment [3], in experiment [4], in experiment [5] and in experiment [6] was 100 to 1000 nM in each case. Besides, the IC50 in experiment [7] lay within 100 to 1000 nM.

Take `C=CC(=O)N1C[C@H](C)N(C(=O)N(C)[C@H](C(=O)N[C@H]2Cc3nc(cs3)-c3ccc4c(c3)c(c(-c3cccnc3[C@H](C)OC)n4CC)CC(C)(C)COC(=O)[C@@H]3CCCN(N3)C2=O)C(C)C)[C@@H](C)C1` (atropisomer, axis not shown) [Example A386]: the IC50 lay in the range of 100 to 1000 nM in experiment [1]; 10 to 100 nM in experiment [2]; 10 to 100 nM in experiment [3]; 10 to 100 nM in experiment [4]; 100 to 1000 nM in experiment [5]; 10 to 100 nM in experiment [6]. Also, the IC50 in experiment [7] is 10 to 100 nM.

As for `CCn1c(-c2cccnc2[C@H](C)OC)c2c3cc(ccc31)-c1csc(n1)C[C@H](NC(=O)[C@H](C(C)C)N(C)C(=O)N1CCC13CN(C(=O)C#CC(C)(C)N(C)C)C3)C(=O)N1CCC[C@H](N1)C(=O)OCC(C)(C)C2` (atropisomer, axis not shown) [Example A656], the IC50 lay in the range of 1000 to 10000 nM in experiment [1]; 100 to 1000 nM in experiment [2]; 100 to 1000 nM in experiment [3]; 100 to 1000 nM in experiment [4]; 1000 to 10000 nM in experiment [5]; 100 to 1000 nM in experiment [6]. Moreover, in experiment [7], the IC50 lay within 10 to 100 nM.

Consider `C=CC(=O)N1CC[C@H](C(=O)N(C)[C@H](C(=O)N[C@H]2Cc3cccc(c3)-c3ccc4c(c3)c(c(-c3cnccc3[C@H](C)OC)n4CC)CC(C)(C)COC(=O)[C@@H]3CCCN(N3)C2=O)C(C)C)C1` (single isomer, unassigned) [Example A115], for which the IC50 in experiment [1] is more than 10000 nM; in experiment [2], 1000 to 10000 nM; in experiment [3] it was 10 to 100 nM and 100 to 1000 nM; in experiment [4], 1000 to 10000 nM; in experiment [5], more than 10000 nM; in experiment [6], 1000 to 10000 nM. The IC50 in experiment [7] fell in the range of 100 to 1000 nM.

`CCn1c(-c2cccnc2[C@H](C)OC)c2c3cc(ccc31)N1CCO[C@@H](C[C@H](NC(=O)[C@@H](COC3CN(C(=O)C#CC(C)(C)N(C)C)C3)C(C)C)C(=O)N3CCC[C@H](N3)C(=O)OCC(C)(C)C2)C1` (atropisomer, axis not shown) [Example A377, (2R)-2-(((1-(4-(dimethylamino)-4-methylpent-2-ynoyl)azetidin-3-yl)oxy)methyl)-N-((2^2S,6^3S,4S)-1^1-ethyl-1^2-(2-((S)-1-methoxyethyl)pyridin-3-yl)-10,10-dimethyl-5,7-dioxo-6^1,6^2,6^3,6^4,6^5,6^6-hexahydro-1^1H-8-oxa-2(4,2)-morpholina-1(5,3)-indola-6(1,3)-pyridazinacycloundecaphane-4-yl)-3-methylbutanamide]: the IC50 in experiment [1] is more than 10000 nM; in experiment [2] it was more than 10000 nM; in experiment [3], less than 10 nM; in experiment [4], more than 10000 nM; in experiment [5], more than 10000 nM; in experiment [6], more than 10000 nM. The IC50 in experiment [7] was more than 10000 nM.

On to `CCn1c(-c2cccnc2[C@H](C)OC)c2c3cc(ccc31)-c1cccc(c1)C[C@H](NC(=O)[C@@H](COC1CN(C(=O)C#C[C@@H]3OCCCN3C)C1)C(C)C)C(=O)N1CCC[C@H](N1)C(=O)OCC(C)(C)C2` (atropisomer, axis not shown) [Example A648], for which the IC50 in experiment [1] is more than 10000 nM; in experiment [2] it was more than 10000 nM; in experiment [3] it was 100 to 1000 nM; in experiment [4], 1000 to 10000 nM; in experiment [5] it was more than 10000 nM; in experiment [6] it was more than 10000 nM. Besides, the IC50 in experiment [7] is more than 10000 nM.

Take `C=CC(=O)N1CC[C@H](C(=O)N(C)[C@H](C(=O)N[C@H]2Cc3cccc(c3)-c3ccc4c(c3)c(c(-c3cc5c(nc3[C@H](C)OC)CCN(C)C5)n4CC)CC(C)(C)COC(=O)[C@@H]3CCCN(N3)C2=O)C(C)C)C1` (atropisomer, axis not shown) [Example A461]: the IC50 in experiment [1] is more than 10000 nM; in experiment [2], 1000 to 10000 nM; in experiment [3], 100 to 1000 nM; in experiment [4], 1000 to 10000 nM; in experiment [5], more than 10000 nM; in experiment [6], 1000 to 10000 nM. Also, the IC50 in experiment [7] was in the range of 1000 to 10000 nM.

In the case of `C=CC(=O)N1CC[C@@]2(COCCN2C(=O)N(C)[C@H](C(=O)N[C@H]2Cc3nc(cs3)-c3ccc4c(c3)c(c(-c3cccnc3[C@H](C)OC)n4CC)CC(C)(C)COC(=O)[C@@H]3CCCN(N3)C2=O)C(C)C)C1` (atropisomer, axis not shown) [Example A677], the IC50 in experiment [1] is 1000 to 10000 nM; in experiment [2], 100 to 1000 nM; in experiment [3] it was 100 to 1000 nM; in experiment [4], 100 to 1000 nM; in experiment [5] it was 1000 to 10000 nM; in experiment [6], 100 to 1000 nM. For the same compound, in experiment [7], the IC50 is 100 to 1000 nM.

Consider `C=CC(=O)N1CC[C@H](C(=O)N(C)[C@H](C(=O)N[C@H]2Cc3cc(O)cc(c3)-c3ccc4c(c3)c(c(-c3cc(C#N)cnc3COC)n4CC)CC(C)(C)COC(=O)[C@@H]3CCCN(N3)C2=O)C(C)C)C1` [Example A105], for which the IC50 was in the range of 1000 to 10000 nM in experiment [1]; 100 to 1000 nM in experiment [2]; 10 to 100 nM in experiment [3]; 100 to 1000 nM in experiment [4]; 100 to 1000 nM in experiment [5]; 100 to 1000 nM in experiment [6]. Besides, the IC50 in experiment [7] fell in the range of 10 to 100 nM.

`C=CC(=O)N1CC[C@@]2(C1)CN(C(=O)N(C)[C@H](C(=O)N[C@H]1Cc3nc(cs3)-c3ccc4c(c3)c(c(-c3cccnc3[C@H](C)OC)n4CC)CC(C)(C)COC(=O)[C@@H]3CCCN(N3)C1=O)C(C)C)CCO2` (atropisomer, axis not shown) [Example A353]: the IC50 in experiment [1] lay within 100 to 1000 nM; in experiment [2], 10 to 100 nM; in experiment [3], 10 to 100 nM; in experiment [4], 100 to 1000 nM; in experiment [5], 100 to 1000 nM; in experiment [6], 100 to 1000 nM. The IC50 in experiment [7] was 10 to 100 nM.

For the compound `C=CC(=O)N(C)[C@H]1CN(C(=O)N(C)[C@H](C(=O)N[C@H]2Cc3nc(cs3)-c3ccc4c(c3)c(c(-c3cccnc3[C@H](C)OC)n4CC)CC(C)(C)COC(=O)[C@@H]3CCCN(N3)C2=O)C(C)C)C[C@H]1F` (atropisomer, axis not shown) [Example A631], the IC50 in experiment [1] lay within 1000 to 10000 nM; in experiment [2], 10 to 100 nM; in experiment [3], 100 to 1000 nM; in experiment [4], 100 to 1000 nM; in experiment [5] it was 100 to 1000 nM; in experiment [6], 100 to 1000 nM. For the same compound, the IC50 in experiment [7] is 10 to 100 nM.

Consider `CCn1c(-c2cccnc2[C@H](C)OC)c2c3cc(ccc31)-c1csc(n1)C[C@H](NC(=O)[C@H](C(C)C)N(C)C(=O)N1CCC3(CC1)CN(C(=O)/C=C/CF)C3)C(=O)N1CCC[C@H](N1)C(=O)OCC(C)(C)C2` (atropisomer, axis not shown) [Example A622], for which the IC50 in experiment [1] fell in the range of 100 to 1000 nM; in experiment [2] it was 10 to 100 nM; in experiment [3], 10 to 100 nM; in experiment [4], 100 to 1000 nM; in experiment [5], 100 to 1000 nM; in experiment [6], 100 to 1000 nM. Moreover, the half-inhibitory concentration (IC50) in experiment [7] fell in the range of 10 to 100 nM.

Broadly, the IC50 is the concentration at which inhibition is half-maximal.
